We go through 11 substances from patent US8557763B2, “Synthetic peptides that enhance tight junction permeability” (Alba Therapeutics Corporation, priority 2007, dated 2013).

Where no end group is shown, it is not given here. [ ]: non-standard residue; d: D form. AllylGly = C=CC[C@H](N)C(=O)O

The subject of test [1] is CaCo2 monolayers. As to the kind of experiment: Trans Epithelial Electric Resistance (TEER) across CaCo2 monolayers. Format: cell-based. More on the design: key to Reduced TEER: + indicates an enhancement of the permeability of the tight junctions were observed; − indicates no enhancement of permeability was observed. The conditions noted are these: CaCo2 monolayers.
Test [2] deals with CaCo2 monolayers. As to the kind of experiment: Lucifer Yellow (LY) permeability assay through CaCo2 monolayers. Format: cell-based. More on the design: key to Enhanced LY permeability: + indicates an enhancement of the permeability of the tight junctions were observed; − indicates no enhancement of permeability was observed. The note with it: CaCo2 monolayers, Lucifer Yellow flux. In general terms: Passage across Caco-2 layers is used to estimate intestinal permeability.

For the substance “39 (F[AllylGly]ITRL-NH2; N-terminus assumed; SMILES C=CC[C@H](NC(=O)[C@@H](N)Cc1ccccc1)C(=O)N[C@H](C(=O)N[C@H](C(=O)N[C@@H](CCCNC(=N)N)C(=O)N[C@@H](CC(C)C)C(N)=O)[C@@H](C)O)[C@@H](C)CC) [compound 39]”, the “Reduced TEER” value in the test with CaCo2 monolayers [1] was “+”. Also, the “Enhanced LY permeability” value with CaCo2 monolayers [2] was “+”.
As to “71 (F[AllylGly]IGPL-NH2; N-terminus assumed; SMILES C=CC[C@H](NC(=O)[C@@H](N)Cc1ccccc1)C(=O)N[C@H](C(=O)NCC(=O)N1CCC[C@H]1C(=O)N[C@@H](CC(C)C)C(N)=O)[C@@H](C)CC) [compound 71]”, the “Reduced TEER” value in the test on CaCo2 monolayers [1] is given as “−”. Moreover, the “Enhanced LY permeability” value with CaCo2 monolayers [2] is on record as “+”.
The like results for 2 (F[AllylGly]IGRL) [compound 2] were, in that order, “+” and “+”.
Consider “23 (F[AllylGly]FGRL-NH2; N-terminus assumed; SMILES C=CC[C@H](NC(=O)[C@@H](N)Cc1ccccc1)C(=O)N[C@@H](Cc1ccccc1)C(=O)NCC(=O)N[C@@H](CCCNC(=N)N)C(=O)N[C@@H](CC(C)C)C(N)=O) [compound 23]”, for which the “Reduced TEER” value in the test on CaCo2 monolayers [1] is “+”. The “Enhanced LY permeability” value with CaCo2 monolayers [2] is reported as “+”.
As for “45 (F[AllylGly]IHRL-NH2; N-terminus assumed; SMILES C=CC[C@H](NC(=O)[C@@H](N)Cc1ccccc1)C(=O)N[C@H](C(=O)N[C@@H](Cc1c[nH]cn1)C(=O)N[C@@H](CCCNC(=N)N)C(=O)N[C@@H](CC(C)C)C(N)=O)[C@@H](C)CC) [compound 45]”, the “Reduced TEER” value in the test with CaCo2 monolayers [1] is “+”. Moreover, the “Enhanced LY permeability” value in the test on CaCo2 monolayers [2] was “+”.
“37 (F[AllylGly]NGRL-NH2; N-terminus assumed; SMILES C=CC[C@H](NC(=O)[C@@H](N)Cc1ccccc1)C(=O)N[C@@H](CC(N)=O)C(=O)NCC(=O)N[C@@H](CCCNC(=N)N)C(=O)N[C@@H](CC(C)C)C(N)=O) [compound 37]”: the “Reduced TEER” value with CaCo2 monolayers [1] is given as “+”. Moreover, the “Enhanced LY permeability” value in the test with CaCo2 monolayers [2] is “+”.
“24 (F[AllylGly]TGRL-NH2; N-terminus assumed; SMILES C=CC[C@H](NC(=O)[C@@H](N)Cc1ccccc1)C(=O)N[C@H](C(=O)NCC(=O)N[C@@H](CCCNC(=N)N)C(=O)N[C@@H](CC(C)C)C(N)=O)[C@@H](C)O) [compound 24]”: the “Reduced TEER” value in the test on CaCo2 monolayers [1] is reported as “−”. Besides, in the test on CaCo2 monolayers [2], the “Enhanced LY permeability” value is reported as “−”.
For “58 (F[AllylGly]IGQL-NH2; N-terminus assumed; SMILES C=CC[C@H](NC(=O)[C@@H](N)Cc1ccccc1)C(=O)N[C@H](C(=O)NCC(=O)N[C@@H](CCC(N)=O)C(=O)N[C@@H](CC(C)C)C(N)=O)[C@@H](C)CC) [compound 58]”, the “Reduced TEER” value with CaCo2 monolayers [1] was “−”. Further, the “Enhanced LY permeability” value with CaCo2 monolayers [2] is on record as “−”.
For “16 (K[AllylGly]IGRL-NH2; N-terminus assumed; SMILES C=CC[C@H](NC(=O)[C@@H](N)CCCCN)C(=O)N[C@H](C(=O)NCC(=O)N[C@@H](CCCNC(=N)N)C(=O)N[C@@H](CC(C)C)C(N)=O)[C@@H](C)CC) [compound 16]”, the “Reduced TEER” value with CaCo2 monolayers [1] is “−”. The “Enhanced LY permeability” value in the test on CaCo2 monolayers [2] is recorded as “−”.
Consider “35 (F[AllylGly]RGRL-NH2; N-terminus assumed; SMILES C=CC[C@H](NC(=O)[C@@H](N)Cc1ccccc1)C(=O)N[C@@H](CCCNC(=N)N)C(=O)NCC(=O)N[C@@H](CCCNC(=N)N)C(=O)N[C@@H](CC(C)C)C(N)=O) [compound 35]”, for which, in the test with CaCo2 monolayers [1], the “Reduced TEER” value is recorded as “+”. In addition, the “Enhanced LY permeability” value with CaCo2 monolayers [2] is on record as “+”.
“19 (P[AllylGly]IGRL-NH2; N-terminus assumed; SMILES C=CC[C@H](NC(=O)[C@@H]1CCCN1)C(=O)N[C@H](C(=O)NCC(=O)N[C@@H](CCCNC(=N)N)C(=O)N[C@@H](CC(C)C)C(N)=O)[C@@H](C)CC) [compound 19]”: the “Reduced TEER” value in the test with CaCo2 monolayers [1] is listed as “−”. For the same substance, the “Enhanced LY permeability” value with CaCo2 monolayers [2] is listed as “−”.
